Results from patent US9708314B2, “Heterocyclic amide compound” (NISSAN CHEMICAL INDUSTRIES, LTD., priority 2013, dated 2017).

Experiments:
Assay type in all cases: in vivo
Apera spica-venti. = assay: Test Example 4: herbicidal effect by application to foliage (diluvial soil, plastic box); conditions: 320 g/ha; for herbicidal effect, L (Apera spica-venti.): application to foliage
How it was run: (§1)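 Seeds sown in sterilized diluvial soil, covered ~1.5 cm, grown 14 days in greenhouse at 25° C. to 30° C. Emulsion formulation diluted in water to set rate (g/ha) and sprayed onto stems and leaves. Effect scored visually 3 weeks later on 0–5 scale (5 = ≥90% herbicidal ratio, 0 = ≤5%).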

Veronica persica = assay: as above; conditions: 320 g/ha; for herbicidal effect, R (Veronica persica): application to foliage
How it was run: as §1

Setaria viridis = assay: as above; conditions: 320 g/ha; for herbicidal effect, G (Setaria viridis): application to foliage
How it was run: as §1

[1] = tested on: Echinochloa crus-galli var. crus-galli; assay: as above; conditions: 320 g/ha; for herbicidal effect, H (Echinochloa crus-galli var. crus-galli): application to foliage
How it was run: as §1

Abutilon theophrasti = assay: as above; conditions: 320 g/ha; for herbicidal effect, M (Abutilon theophrasti): application to foliage
How it was run: as §1

Stellaria media = assay: as above; conditions: 320 g/ha; for herbicidal effect, P (Stellaria media): application to foliage
How it was run: as §1

Chenopodium album = assay: as above; conditions: 320 g/ha; for herbicidal effect, O (Chenopodium album): application to foliage
How it was run: as §1

Lolium multiflorum Lam. = assay: as above; conditions: 320 g/ha; for herbicidal effect, K (Lolium multiflorum Lam.): application to foliage
How it was run: as §1

Alopecurus myosuroides = assay: as above; conditions: 320 g/ha; for herbicidal effect, J (Alopecurus myosuroides): application to foliage
How it was run: as §1

Digitaria ciliaris = assay: as above; conditions: 320 g/ha; for herbicidal effect, F (Digitaria ciliaris): application to foliage
How it was run: as §1

Amaranthus retroflexus = assay: as above; conditions: 320 g/ha; for herbicidal effect, N (Amaranthus retroflexus): application to foliage
How it was run: as §1

Avena fatua = assay: as above; conditions: 320 g/ha; for herbicidal effect, I (Avena fatua): application to foliage
How it was run: as §1

[2] = tested on: Echinochloa oryzacola Vasing.; assay: Test Example 2: herbicidal activity, application during weed generation in submerged conditions; conditions: Eighteenth Table; application herbicide amount 320 g/ha
How it was run: (§2)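 Scored three weeks post-application on a 0–5 scale (5: ≥90% herbicidal ratio, almost withered; 0: ≤5%). Plants raised from mixed-sown seed in submerged alluvial soil (4 cm water), 25–30 °C greenhouse; water-diluted emulsion applied onto water surface at one- to two-leaf stage, dose in g/ha.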

Scirpus juncoides = assay: as above; conditions: Eighteenth Table; application herbicide amount 320 g/ha
How it was run: as §2

Monochoria vaginalis = assay: as above; conditions: Eighteenth Table; application herbicide amount 320 g/ha
How it was run: as §2

Row | SMILES | herbicidal effect, L (Apera spica-venti.) (Apera spica-venti.) | herbicidal effect, R (Veronica persica) (Veronica persica) | herbicidal effect, G (Setaria viridis) (Setaria viridis) | herbicidal effect, H (Echinochloa crus-galli var. crus-galli) [1] | herbicidal effect, M (Abutilon theophrasti) (Abutilon theophrasti) | herbicidal effect, P (Stellaria media) (Stellaria media) | herbicidal effect, O (Chenopodium album) (Chenopodium album) | herbicidal effect, K (Lolium multiflorum Lam.) (Lolium multiflorum Lam.) | herbicidal effect, J (Alopecurus myosuroides) (Alopecurus myosuroides) | herbicidal effect, F (Digitaria ciliaris) (Digitaria ciliaris) | herbicidal effect, N (Amaranthus retroflexus) (Amaranthus retroflexus) | herbicidal effect, I (Avena fatua) (Avena fatua) | A (Echinochloa oryzicola Vasing.) herbicidal ratio grade [2] | B (Scirpus juncoides) herbicidal ratio grade (Scirpus juncoides) | C (Monochoria vaginalis) herbicidal ratio grade (Monochoria vaginalis) | further results
1 | CSCCNc1nnc2c(C(=O)Nc3nnnn3C)ccc(C(F)(F)F)n12 [2-080] | 3 (Herbicidal ratio of 40% or more and less than 70%) | 5 (Herbicidal ratio of 90% or more (almost completely withered)) | 3 (Herbicidal ratio of 40% or more and less than 70%) | 5 (Herbicidal ratio of 90% or more (almost completely withered)) | 5 (Herbicidal ratio of 90% or more (almost completely withered)) | 4 (Herbicidal ratio of 70% or more and less than 90%) | 5 (Herbicidal ratio of 90% or more (almost completely withered)) | 0 (Herbicidal ratio of 5% or less (almost no effect)) | 1 (Herbicidal ratio of 5% or more and less than 20%) | 5 (Herbicidal ratio of 90% or more (almost completely withered)) | 5 (Herbicidal ratio of 90% or more (almost completely withered)) | 1 (Herbicidal ratio of 5% or more and less than 20%) | 2 (Herbicidal ratio of 20% or more and less than 40%) | 1 (Herbicidal ratio of 5% or more and less than 20%) | 0 (Herbicidal ratio of 5% or less (almost no effect)) | 
2 | CC(C)c1nnc2c(C(=O)Nc3nnnn3Cc3ccc(Cl)cc3)ccc(C(F)(F)F)n12 [2-093] | 1 (Herbicidal ratio of 5% or more and less than 20%) | 2 (Herbicidal ratio of 20% or more and less than 40%) | 0 (Herbicidal ratio of 5% or less (almost no effect)) | 1 (Herbicidal ratio of 5% or more and less than 20%) | 3 (Herbicidal ratio of 40% or more and less than 70%) | 5 (Herbicidal ratio of 90% or more (almost completely withered)) | 5 (Herbicidal ratio of 90% or more (almost completely withered)) | 1 (Herbicidal ratio of 5% or more and less than 20%) | 1 (Herbicidal ratio of 5% or more and less than 20%) | 1 (Herbicidal ratio of 5% or more and less than 20%) | 2 (Herbicidal ratio of 20% or more and less than 40%) | 1 (Herbicidal ratio of 5% or more and less than 20%) | 2 (Herbicidal ratio of 20% or more and less than 40%) | 4 (Herbicidal ratio of 70% or more and less than 90%) | 3 (Herbicidal ratio of 40% or more and less than 70%) | 
3 | CC(C)CSc1nnc2c(C(=O)Nc3nnnn3C)ccc(C(F)(F)F)n12 [2-071] |  |  |  |  |  |  |  |  |  |  |  |  | 3 (Herbicidal ratio of 40% or more and less than 70%) | 5 (Herbicidal ratio of 90% or more (almost completely withered)) | 5 (Herbicidal ratio of 90% or more (almost completely withered)) | L (Apera spica-venti.) herbicidal effect grade (Apera spica-venti.; foliage application): 1 (Herbicidal ratio of 5% or more and less than 20%); R (Veronica persica) herbicidal effect grade (Veronica persica; foliage application): 5 (Herbicidal ratio of 90% or more (almost completely withered)); G (Setaria viridis) herbicidal effect grade (Setaria viridis; foliage application): 4 (Herbicidal ratio of 70% or more and less than 90%); H (Echinochloa crus-galli var. crus-galli) herbicidal effect grade ([1]; foliage application): 5 (Herbicidal ratio of 90% or more (almost completely withered)); M (Abutilon theophrasti) herbicidal effect grade (Abutilon theophrasti; foliage application): 4 (Herbicidal ratio of 70% or more and less than 90%); P (Stellaria media) herbicidal effect grade (Stellaria media; foliage application): 5 (Herbicidal ratio of 90% or more (almost completely withered)); O (Chenopodium album) herbicidal effect grade (Chenopodium album; foliage application): 5 (Herbicidal ratio of 90% or more (almost completely withered)); K (Lolium multiflorum Lam.) herbicidal effect grade (Lolium multiflorum Lam.; foliage application): 1 (Herbicidal ratio of 5% or more and less than 20%); J (Alopecurus myosuroides) herbicidal effect grade (Alopecurus myosuroides; foliage application): 1 (Herbicidal ratio of 5% or more and less than 20%); F (Digitaria ciliaris) herbicidal effect grade (Digitaria ciliaris; foliage application): 5 (Herbicidal ratio of 90% or more (almost completely withered)); N (Amaranthus retroflexus) herbicidal effect grade (Amaranthus retroflexus; foliage application): 5 (Herbicidal ratio of 90% or more (almost completely withered)); I (Avena fatua) herbicidal effect grade (Avena fatua; foliage application): 2 (Herbicidal ratio of 20% or more and less than 40%)
4 | Cn1nnnc1NC(=O)c1ccc(C(F)(F)F)n2c(C3(C)CC3(Cl)Cl)nnc12 (stereo not drawn) [2-110] | 3 (Herbicidal ratio of 40% or more and less than 70%) | 5 (Herbicidal ratio of 90% or more (almost completely withered)) | 4 (Herbicidal ratio of 70% or more and less than 90%) | 5 (Herbicidal ratio of 90% or more (almost completely withered)) | 5 (Herbicidal ratio of 90% or more (almost completely withered)) | 5 (Herbicidal ratio of 90% or more (almost completely withered)) | 5 (Herbicidal ratio of 90% or more (almost completely withered)) | 3 (Herbicidal ratio of 40% or more and less than 70%) | 2 (Herbicidal ratio of 20% or more and less than 40%) | 5 (Herbicidal ratio of 90% or more (almost completely withered)) | 5 (Herbicidal ratio of 90% or more (almost completely withered)) | 3 (Herbicidal ratio of 40% or more and less than 70%) | 5 (Herbicidal ratio of 90% or more (almost completely withered)) | 5 (Herbicidal ratio of 90% or more (almost completely withered)) | 4 (Herbicidal ratio of 70% or more and less than 90%) | 
5 | Cn1nnnc1NC(=O)c1ccc(C(F)(F)F)n2c(SCC3CC3)nnc12 [2-084] | 4 (Herbicidal ratio of 70% or more and less than 90%) | 3 (Herbicidal ratio of 40% or more and less than 70%) | 5 (Herbicidal ratio of 90% or more (almost completely withered)) | 5 (Herbicidal ratio of 90% or more (almost completely withered)) | 5 (Herbicidal ratio of 90% or more (almost completely withered)) | 5 (Herbicidal ratio of 90% or more (almost completely withered)) | 5 (Herbicidal ratio of 90% or more (almost completely withered)) | 3 (Herbicidal ratio of 40% or more and less than 70%) | 3 (Herbicidal ratio of 40% or more and less than 70%) | 5 (Herbicidal ratio of 90% or more (almost completely withered)) | 5 (Herbicidal ratio of 90% or more (almost completely withered)) | 4 (Herbicidal ratio of 70% or more and less than 90%) | 4 (Herbicidal ratio of 70% or more and less than 90%) | 4 (Herbicidal ratio of 70% or more and less than 90%) | 3 (Herbicidal ratio of 40% or more and less than 70%) | 
